The values that follow come from patent publication US10005773B2, “1-(4-pyrimidinyl)-1H-pyrrolo[3,2-c]pyridine derivatives as NIK inhibitors” (Janssen Pharmaceutica NV, priority 2013, dated 2018).

One assay has as its system L-363 cells. The assay is described as follows: Biological Assay C: antiproliferative activity on L-363 cells (CellTiter-Glo). In kind it is cell-based. To be noted: Homo sapiens, 72 hr treatment. The essentials:
(§1)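 Luminescent ATP signal (CellTiter-Glo) measures growth of myeloma cells following a 72 h compound treatment. Values for the time-zero blank are subtracted, and each mean of duplicate wells is given as percentage of the no-drug control.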
A general note: Cellular ATP, detected with luciferase, serves as a proxy for viable cell number.

The next assay has as its system JJN-3 cells. Kind of assay: Biological Assay C: antiproliferative activity on JJN-3 cells (CellTiter-Glo). In kind it is cell-based. The following applies: Homo sapiens, 72 hr treatment. The essentials:
as §1

Assay [1] concerns the target T1, Recombinant Human NF-kappaB-Inducing Kinase (NIK/MAP3K14) (Homo sapiens, UniProt Q99558). Kind of assay: Biological Assay A2: inhibition of auto-phosphorylation of recombinant human NIK/MAP3K14 (AlphaScreen). In kind it is biochemical. The following applies: 25 microM ATP, 0.2 nM NIK/MAP3K14, 1 h at 25° C., averaged over all batches, read-out: Alpha-Screen IC50. For orientation: Bead proximity is the source of the signal in Alpha formats.

For assay [2], the system named is P-IKKα levels in L363 cells. Kind of assay: Biological Assay B: effect of compounds on P-IKKα levels in L363 cells. In kind it is cell-based. The following applies: Homo sapiens, L-363, BAFF stimulated, 2 hr treatment, averaged over all batches, read-out: IKKα Cellular IC50. Put shortly:
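L363 cells pre-stimulated 24 h with recombinant human BAFF, then treated 2 h with compound (8-point 1:3 dilutions, 1% DMSO final); lysates assayed for P-IKKα by sandwich immunoassay. Blank (MG132, BAFF, 10 μM ADS125117) subtracted; IC50 from sigmoidal fit of % inhibition versus log concentration.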

For assay [3], the target named is T1, Recombinant Human NF-kappaB-Inducing Kinase (NIK/MAP3K14). The assay is described as follows: Biological Assay A: inhibition of recombinant human NIK/MAP3K14 activity (MSD, MBP substrate). To be noted: 25 μM ATP, 10 nM NIK/MAP3K14, 1 h at 25° C.; averaged over all batches; read-out: Biochemical (MSD MBP) IC50. Put shortly: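 Recombinant human NIK (10 nM) with 25 μM ATP and compound (1% DMSO final) for 1 h at 25° C in pH 7.5 Tris buffer with MgCl2, on MBP-coated plates. Phospho-MBP detected by anti-phospho-MBP and Sulfotag antibody via electrochemiluminescence; blank-subtracted, IC50 from sigmoidal fit.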

The subject of a further assay is LP-1 cells. Kind of assay: Biological Assay C: antiproliferative activity on LP-1 cells (CellTiter-Glo). In kind it is cell-based. The following applies: Homo sapiens, 72 hr treatment. The essentials:
as §1

As usually defined, the EC50 is the midpoint of the concentration-response curve. The IC50 is the concentration that inhibits the measured activity by half.

T1 sequence (Q99558 whole entry): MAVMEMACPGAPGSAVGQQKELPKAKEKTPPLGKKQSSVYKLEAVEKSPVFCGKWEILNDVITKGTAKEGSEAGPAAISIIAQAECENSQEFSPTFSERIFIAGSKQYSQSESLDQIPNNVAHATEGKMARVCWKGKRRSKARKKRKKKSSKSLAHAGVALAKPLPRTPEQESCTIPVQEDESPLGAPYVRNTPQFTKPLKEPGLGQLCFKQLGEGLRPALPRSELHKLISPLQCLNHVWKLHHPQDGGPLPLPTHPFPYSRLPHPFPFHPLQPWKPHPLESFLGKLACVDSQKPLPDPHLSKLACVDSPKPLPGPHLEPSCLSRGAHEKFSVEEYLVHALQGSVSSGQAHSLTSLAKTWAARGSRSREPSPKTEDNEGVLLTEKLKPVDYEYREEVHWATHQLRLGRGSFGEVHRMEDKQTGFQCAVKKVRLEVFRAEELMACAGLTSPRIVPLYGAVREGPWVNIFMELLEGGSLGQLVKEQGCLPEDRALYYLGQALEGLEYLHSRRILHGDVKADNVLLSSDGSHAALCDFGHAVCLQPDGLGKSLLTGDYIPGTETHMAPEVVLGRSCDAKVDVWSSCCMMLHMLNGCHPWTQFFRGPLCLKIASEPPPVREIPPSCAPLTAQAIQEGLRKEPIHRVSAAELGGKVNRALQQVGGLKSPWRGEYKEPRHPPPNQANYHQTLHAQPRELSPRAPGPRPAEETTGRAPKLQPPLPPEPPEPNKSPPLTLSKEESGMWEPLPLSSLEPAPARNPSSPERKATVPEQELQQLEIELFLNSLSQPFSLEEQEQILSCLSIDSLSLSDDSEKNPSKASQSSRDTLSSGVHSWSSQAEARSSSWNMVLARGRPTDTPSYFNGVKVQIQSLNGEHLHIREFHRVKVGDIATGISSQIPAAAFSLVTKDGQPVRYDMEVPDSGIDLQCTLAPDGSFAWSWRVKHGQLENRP

With `N#CCCc1cn(-c2ccnc(N)n2)c2cc(C#CC3(O)CCCC3)ncc12` [Compound 37], the EC50 in the assay on L-363 cells came to 1300 nM; in the assay with JJN-3 cells it was 871 nM; in the assay on LP-1 cells, 5.17 µM. Also, the IC50 stood at 29 nM in assay [1], 119 nM in assay [2] and 5.1 nM in assay [3].
